A short description of series [1]: AUC in C57B6 mouse at 2 mg/kg, po administered as suspension. It is filed as ADME, organism-based. Further details: dose 2 mg/kg. The settings on record: in vivo.
Series [2] in a line: Cmax in C57B6 mouse at 2 mg/kg, po administered as solution. Type of series: ADME, organism-based. Further details: route oral, dose 2 mg/kg. Conditions: in vivo.
Series [3] is described as follows: AUC in C57B6 mouse at 2 mg/kg, po administered as solution. It is filed as ADME, organism-based. The settings on record: in vivo. Further details: dose 2 mg/kg.
In series [4] the target is T1, Nuclear receptor ROR-alpha (Homo sapiens, UniProt P35398).
T1 sequence (P35398 whole entry): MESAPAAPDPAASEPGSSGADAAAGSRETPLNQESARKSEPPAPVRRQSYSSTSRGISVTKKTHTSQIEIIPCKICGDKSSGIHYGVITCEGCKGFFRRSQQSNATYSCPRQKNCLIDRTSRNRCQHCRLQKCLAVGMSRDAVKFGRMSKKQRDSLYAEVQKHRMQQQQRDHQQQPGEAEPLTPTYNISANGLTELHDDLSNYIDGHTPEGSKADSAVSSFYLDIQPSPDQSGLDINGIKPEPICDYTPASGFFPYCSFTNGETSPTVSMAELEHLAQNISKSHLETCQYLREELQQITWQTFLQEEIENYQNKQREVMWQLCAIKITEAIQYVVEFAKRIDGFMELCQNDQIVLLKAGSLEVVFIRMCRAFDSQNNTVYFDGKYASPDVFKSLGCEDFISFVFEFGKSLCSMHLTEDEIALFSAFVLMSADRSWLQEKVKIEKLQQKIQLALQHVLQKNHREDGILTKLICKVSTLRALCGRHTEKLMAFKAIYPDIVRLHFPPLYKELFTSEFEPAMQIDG
Description: Antagonist activity at human RORalpha (272 to 557 residues) co-expressed with Gal4-luciferase reporter in human Jurkat cells incubated for 18 hrs by Steady-Glo luciferase reporter based luminescence analysis. It is filed as cell-based. On the technique in general: In a reporter assay the amount or activity of a reporter protein is the signal.

Series [5] in a line: Half life in C57B6 mouse at 2 mg/kg, po administered as suspension. The settings on record: in vivo. Type of series: ADME, organism-based.
Series [6] deals with T2, Peroxisome proliferator-activated receptor delta (Homo sapiens, UniProt Q03181).
T2 sequence (Q03181 whole entry): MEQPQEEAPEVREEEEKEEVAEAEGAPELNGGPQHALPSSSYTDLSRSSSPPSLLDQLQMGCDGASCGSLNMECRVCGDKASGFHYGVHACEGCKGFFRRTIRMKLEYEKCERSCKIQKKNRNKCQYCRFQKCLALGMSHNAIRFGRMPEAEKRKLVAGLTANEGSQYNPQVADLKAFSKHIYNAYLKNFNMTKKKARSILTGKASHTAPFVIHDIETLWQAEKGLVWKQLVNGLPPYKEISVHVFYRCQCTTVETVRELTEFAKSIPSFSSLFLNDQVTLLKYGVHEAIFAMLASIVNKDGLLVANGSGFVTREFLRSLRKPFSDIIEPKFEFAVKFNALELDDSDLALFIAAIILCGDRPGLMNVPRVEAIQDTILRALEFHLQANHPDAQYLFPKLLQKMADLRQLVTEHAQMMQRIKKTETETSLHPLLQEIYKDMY
Description: Activation of PPARdelta LBD (unknown origin) co-expressed with Gal4UAS-luciferase reporter in HEK293 cells incubated for 24 hrs by Steady-Glo luciferase reporter gene based luminescence analysis. It is filed as cell-based.

A short description of series [7]: Oral bioavailability in C57B6 mouse at 2 mg/kg administered as suspension. Type of series: ADME, organism-based. The settings on record: in vivo.
A short description of series [8]: Metabolic stability in human liver microsomes assessed as half life. It is filed as ADME, Microsome. For orientation: Microsomes from liver hold many membrane-bound enzymes, among them those of drug oxidation.
Series [9] concerns the target T1, Nuclear receptor ROR-alpha. In words: Agonist activity at human RORalpha (272 to 557 residues) co-expressed with Gal4-luciferase reporter in human Jurkat cells incubated for 18 hrs by Steady-Glo luciferase reporter based luminescence analysis. Type of series: cell-based.
The next series has as its target T3, Glucocorticoid receptor (Homo sapiens, UniProt P04150).
T3 sequence (P04150 whole entry): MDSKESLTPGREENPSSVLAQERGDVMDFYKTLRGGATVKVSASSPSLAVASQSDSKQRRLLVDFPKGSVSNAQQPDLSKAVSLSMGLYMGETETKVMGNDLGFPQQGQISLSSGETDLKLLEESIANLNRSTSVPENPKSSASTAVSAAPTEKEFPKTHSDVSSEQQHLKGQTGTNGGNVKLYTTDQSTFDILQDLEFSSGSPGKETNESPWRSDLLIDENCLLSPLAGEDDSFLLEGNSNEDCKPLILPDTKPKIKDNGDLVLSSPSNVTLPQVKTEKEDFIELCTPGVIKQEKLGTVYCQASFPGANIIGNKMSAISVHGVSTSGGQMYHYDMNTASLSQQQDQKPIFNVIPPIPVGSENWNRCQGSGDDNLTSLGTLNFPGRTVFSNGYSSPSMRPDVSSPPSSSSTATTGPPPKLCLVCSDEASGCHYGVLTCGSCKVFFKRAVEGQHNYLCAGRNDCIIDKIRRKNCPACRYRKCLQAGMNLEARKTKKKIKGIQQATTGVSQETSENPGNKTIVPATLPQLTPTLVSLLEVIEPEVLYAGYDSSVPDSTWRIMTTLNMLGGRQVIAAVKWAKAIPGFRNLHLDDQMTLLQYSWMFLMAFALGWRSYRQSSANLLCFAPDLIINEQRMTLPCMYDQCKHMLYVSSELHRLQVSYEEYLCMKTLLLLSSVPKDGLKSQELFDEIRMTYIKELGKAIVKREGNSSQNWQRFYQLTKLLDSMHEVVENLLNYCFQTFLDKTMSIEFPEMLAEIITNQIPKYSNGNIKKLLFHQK
In words: Activation of glucocorticoid receptor (unknown origin) by fluorescence polarization based competition assay.

A short description of series [10]: Cmax in C57B6 mouse at 1 mg/kg, iv. Type of series: ADME, organism-based. Further details: route intravenous, dose 1 mg/kg. Conditions: in vivo.
Series [11] has as its target T4, Nuclear receptor ROR-gamma (Homo sapiens, UniProt P51449).
T4 sequence (P51449 whole entry): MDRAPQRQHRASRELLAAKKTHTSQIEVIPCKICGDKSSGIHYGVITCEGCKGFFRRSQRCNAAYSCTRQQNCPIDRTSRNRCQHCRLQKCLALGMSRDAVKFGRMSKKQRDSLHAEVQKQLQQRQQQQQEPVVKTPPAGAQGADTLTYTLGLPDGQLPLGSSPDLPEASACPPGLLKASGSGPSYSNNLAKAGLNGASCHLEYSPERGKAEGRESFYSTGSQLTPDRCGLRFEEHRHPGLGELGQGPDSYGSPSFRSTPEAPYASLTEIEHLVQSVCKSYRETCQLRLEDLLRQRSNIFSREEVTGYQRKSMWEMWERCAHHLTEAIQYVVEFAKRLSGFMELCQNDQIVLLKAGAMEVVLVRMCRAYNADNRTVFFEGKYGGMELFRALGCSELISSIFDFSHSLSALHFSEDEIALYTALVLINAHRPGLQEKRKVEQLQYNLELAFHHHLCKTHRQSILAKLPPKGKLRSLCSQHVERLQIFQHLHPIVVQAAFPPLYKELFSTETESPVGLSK
Description: Displacement of [3H]25-hydroxycholesterol from human N-terminal His-tagged RORgammaT LBD (262 to 508 residues) expressed in Escherichia coli preincubated for 10 mins followed by addition [3H]25-OH cholesterol and measured after 10 mins by scintillation proximity assay. (In general: Displacement assays read how much labelled ligand stays bound in the presence of the test substance.)

Here are results for one compound from ChEMBL document CHEMBL4823324, “Discovery of BMS-986318, a Potent Nonbile Acid FXR Agonist for the Treatment of Nonalcoholic Steatohepatitis” (ACS Med Chem Lett, 2021).

As a reminder, the AUC is concentration integrated over time. Usually Cmax stands for the peak of the concentration-time curve. One may read the IC50 as the concentration that inhibits the measured activity by half. As usually defined, the half-life is the time in which the quantity being followed falls by half. Broadly, the EC50 is the midpoint of the concentration-response curve. A high value points to a need for much substance. The term bioavailability denotes dose-corrected exposure relative to a reference, in per cent. The low end stands for little systemic uptake, the high end for much systemic uptake. As to `O=C(O)c1cc(C(F)(F)F)c2cc(N3CCC4(C=C(c5c(-c6c(Cl)cncc6Cl)noc5C5CC5)C4)CC3)ccc2n1`, the exposure (AUC) turned out to be 4.76 µM·h in series [1] and 6.65 µM·h in [3]. Besides, the Cmax in series [2] was determined as 1220 nM; in series [10], 1490 nM. The half-maximal inhibitory concentration (IC50) in series [4] and in series [11] was > 40 µM throughout. For the same compound, the figures for the half-life in series [5] and in series [8] were 2 h and > 2 h, respectively. For the same compound, the concentration giving a half-maximal response (EC50) (in series [6]; in series [9]; at Glucocorticoid receptor) was > 40 µM in each case. The same compound came in with a bioavailability in [7] of 26%.
